Assay results reported in patent publication US20250270172A1, “Pyrimidine Derivatives As Modulators of the 5-HT2A Serotonin Receptor Useful For The Treatment of Disorders Related Thereto” (Arena Pharmaceuticals, Inc., priority 2020, published 2025).
Where two headings read alike, the source gives them in different places.

Target: 5-HT2A (Homo sapiens (Human), UniProt P28223)
Test: Radioligand binding assay, [^3H]5-HT competition, 5-HT2A
[1] = [^3H]5-HT radioligand, membranes of HEK293 cells expressing recombinant 5-HT2A, Ki from IC50 by Cheng-Prusoff, read-out: 5-HT2A serotonin binding Ki value

Chain of 5-HT2A (P28223 whole entry): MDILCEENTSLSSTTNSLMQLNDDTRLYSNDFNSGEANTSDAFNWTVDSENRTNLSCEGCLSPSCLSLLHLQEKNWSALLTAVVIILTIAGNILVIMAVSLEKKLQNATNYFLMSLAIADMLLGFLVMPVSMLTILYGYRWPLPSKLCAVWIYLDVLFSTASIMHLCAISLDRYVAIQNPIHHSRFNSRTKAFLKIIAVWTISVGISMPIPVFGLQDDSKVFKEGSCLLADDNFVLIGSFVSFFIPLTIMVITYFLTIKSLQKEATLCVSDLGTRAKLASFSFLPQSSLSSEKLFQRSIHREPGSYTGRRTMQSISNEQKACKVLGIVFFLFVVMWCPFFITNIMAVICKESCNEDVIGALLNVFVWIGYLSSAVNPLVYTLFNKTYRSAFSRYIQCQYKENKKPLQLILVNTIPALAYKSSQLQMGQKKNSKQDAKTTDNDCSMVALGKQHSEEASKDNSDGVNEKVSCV

| Structure (SMILES) | Ki [1] [nM] | also measured |
| --- | --- | --- |
| Cc1ncnc(C)c1-c1cc(NC(=O)c2cnoc2C)ccc1OCCN1CCCC1 [Compound 220, N-(3-(4,6-dimethylpyrimidin-5-yl)-4-(2-(pyrrolidin-1-yl)ethoxy)phenyl)-5-methylisoxazole-4-carboxamide] | 22 | – |
| Cc1ncnc(C)c1-c1cc(NC(=O)c2ncoc2C)ccc1OCCN1CCCC1 [Compound 221, N-(3-(4,6-dimethylpyrimidin-5-yl)-4-(2-(pyrrolidin-1-yl)ethoxy)phenyl)-5-methyloxazole-4-carboxamide] | 11.4 | – |
| Cc1nscc1C(=O)Nc1ccc(OCCN2CCCC2)c(-c2c(C)ncnc2C)c1 [Compound 223, N-(3-(4,6-dimethylpyrimidin-5-yl)-4-(2-(pyrrolidin-1-yl)ethoxy)phenyl)-3-methylisothiazole-4-carboxamide] | – | Ki (read-out: 5-HT2A serotonin binding Ki value): 10.5 nM |
| Cc1ncnc(C)c1-c1cc(NC(=O)Cc2ncsc2C)ccc1OCCN1CCCC1 [Compound 225, N-(3-(4,6-dimethylpyrimidin-5-yl)-4-(2-(pyrrolidin-1-yl)ethoxy)phenyl)-2-(5-methylthiazol-4-yl)acetamide] | 712 | – |
| Cc1ncoc1CC(=O)Nc1ccc(OCCN2CCCC2)c(-c2c(C)ncnc2C)c1 [Compound 226, N-(3-(4,6-dimethylpyrimidin-5-yl)-4-(2-(pyrrolidin-1-yl)ethoxy)phenyl)-2-(4-methyloxazol-5-yl)acetamide] | 714 | – |
| Cc1ncnc(C)c1-c1cc(NC(=O)Cc2ccnn2C)ccc1OCCN1CCCC1 [Compound 227, N-(3-(4,6-dimethylpyrimidin-5-yl)-4-(2-(pyrrolidin-1-yl)ethoxy)phenyl)-2-(1-methyl-1H-pyrazol-5-yl)acetamide] | 83.1 | – |
| Cc1ncnc(C)c1-c1cc(NC(=O)CC2CCOC2)ccc1OCCN1CCCC1 (stereo not drawn) [Compound 228, N-(3-(4,6-dimethylpyrimidin-5-yl)-4-(2-(pyrrolidin-1-yl)ethoxy)phenyl)-2-(tetrahydrofuran-3-yl)acetamide] | 13 | – |
| Cc1ncnc(C)c1-c1cc(NC(=O)CC2CCCO2)ccc1OCCN1CCCC1 (stereo not drawn) [Compound 229, N-(3-(4,6-dimethylpyrimidin-5-yl)-4-(2-(pyrrolidin-1-yl)ethoxy)phenyl)-2-(tetrahydrofuran-2-yl)acetamide] | 113 | – |
| Cc1ncnc(C)c1-c1cc(NC(=O)C2CCCO2)ccc1OCCN1CCCC1 (stereo not drawn) [Compound 230, N-(3-(4,6-dimethylpyrimidin-5-yl)-4-(2-(pyrrolidin-1-yl)ethoxy)phenyl)tetrahydrofuran-2-carboxamide] | 252 | – |
| Cc1ncnc(C)c1-c1cc(NC(=O)C2CCOC2)ccc1OCCN1CCCC1 (stereo not drawn) [Compound 231, N-(3-(4,6-dimethylpyrimidin-5-yl)-4-(2-(pyrrolidin-1-yl)ethoxy)phenyl)tetrahydrofuran-3-carboxamide] | 45.7 | – |
| CCOCC(=O)Nc1ccc(OCCN2CCCC2)c(-c2c(C)ncnc2C)c1 [Compound 234, N-(3-(4,6-dimethylpyrimidin-5-yl)-4-(2-(pyrrolidin-1-yl)ethoxy)phenyl)-2-ethoxyacetamide] | 121 | – |
| COCCC(=O)Nc1ccc(OCCN2CCCC2)c(-c2c(C)ncnc2C)c1 [Compound 235, N-(3-(4,6-dimethylpyrimidin-5-yl)-4-(2-(pyrrolidin-1-yl)ethoxy)phenyl)-3-methoxypropanamide] | – | Ki: 211 nM |
| Cc1ncnc(C)c1-c1cc(NC(=O)Cn2cccn2)ccc1OCCN1CCCC1 [Compound 236, N-(3-(4,6-dimethylpyrimidin-5-yl)-4-(2-(pyrrolidin-1-yl)ethoxy)phenyl)-2-(1H-pyrazol-1-yl)acetamide] | 21.4 | – |
| Cc1ncnc(C)c1-c1cc(NC(=O)CN2CCn3cccc3C2)ccc1OCCN1CCCC1 [Compound 237, 2-(3,4-dihydro-1H-pyrrolo[1,2-a]pyrazin-2-yl)-N-[3-(4,6-dimethylpyrimidin-5-yl)-4-(2-pyrrolidin-1-ylethoxy)phenyl]acetamide] | 12.7 | – |
| Cc1ncnc(C)c1-c1cc(NC(=O)CN2CCn3nccc3C2)ccc1OCCN1CCCC1 [Compound 239, 2-(6,7-dihydropyrazolo[1,5-a]pyrazin-5 (4H)-yl)-N-(3-(4,6-dimethylpyrimidin-5-yl)-4-(2-(pyrrolidin-1-yl)ethoxy)phenyl)acetamide] | 92.3 | – |
| Cc1ncnc(C)c1-c1cc(NC(=O)CN2CCn3cnnc3C2)ccc1OCCN1CCCC1 [Compound 240, 2-(5,6-dihydro-[1,2,4]triazolo[4,3-a]pyrazin-7 (8H)-yl)-N-(3-(4,6-dimethylpyrimidin-5-yl)-4-(2-(pyrrolidin-1-yl)ethoxy)phenyl)acetamide] | 60900 | – |
| Cc1ncnc(C)c1-c1cc(NC(=O)COC2CC2)ccc1OCCN1CCCC1 [Compound 241, 2-(cyclopropoxy)-N-[3-(4,6-dimethylpyrimidin-5-yl)-4-(2-pyrrolidin-1-ylethoxy)phenyl]acetamide] | 27.8 | – |
| Cc1ncnc(C)c1-c1cc(NC(=O)COC2CCC2)ccc1OCCN1CCCC1 [Compound 242, 2-cyclobutoxy-N-(3-(4,6-dimethylpyrimidin-5-yl)-4-(2-(pyrrolidin-1-yl)ethoxy)phenyl)acetamide] | 37.6 | – |

| Structure (SMILES) | Ki [1] [nM] | also measured |
| --- | --- | --- |
| Cc1ncnc(C)c1-c1cc(NC(=O)[C@@]23COC[C@@H]2C3)ccc1OCCN1CCCC1 [Compound 246, (1R,5R)—N-[3-(4,6-dimethylpyrimidin-5-yl)-4-(2-pyrrolidin-1-ylethoxy)phenyl]-3-oxabicyclo[3.1.0]hexane-1-carboxamide] | 16.3 | – |
| Cc1ncnc(C)c1-c1cc(NC(=O)CCc2ccc(F)cc2)ccc1OCCN1CCCC1 [Compound 248, N-[3-(4,6-dimethylpyrimidin-5-yl)-4-(2-pyrrolidin-1-ylethoxy)phenyl]-3-(4-fluorophenyl)propanamide] | 0.845 | – |
| Cc1ncnc(C)c1-c1cc(NC(=O)Cc2cccn2C)ccc1OCCN1CCCC1 [Compound 249, N-(3-(4,6-dimethylpyrimidin-5-yl)-4-(2-(pyrrolidin-1-yl)ethoxy)phenyl)-2-(1-methyl-1H-pyrrol-2-yl)acetamide] | 78.3 | – |
| Cc1ncnc(C)c1-c1cc(NC(=O)Cc2ccccc2)ccc1OCCN1CCCC1 [Compound 251, N-(3-(4,6-dimethylpyrimidin-5-yl)-4-(2-(pyrrolidin-1-yl)ethoxy)phenyl)-2-phenylacetamide] | 2.05 | – |
| Cc1ncnc(C)c1-c1cc(NC(=O)C(C)c2ccccc2)ccc1OCCN1CCCC1 (stereo not drawn) [Compound 252, N-(3-(4,6-dimethylpyrimidin-5-yl)-4-(2-(pyrrolidin-1-yl)ethoxy)phenyl)-2-phenylpropanamide] | 9.53 | – |
| Cc1ncnc(C)c1-c1cc(NC(=O)C2(c3ccccc3)CC2)ccc1OCCN1CCCC1 [Compound 253, N-(3-(4,6-dimethylpyrimidin-5-yl)-4-(2-(pyrrolidin-1-yl)ethoxy)phenyl)-1-phenylcyclopropane-1-carboxamide] | 6.34 | – |
| Cc1ncnc(C)c1-c1cc(NC(=O)Cc2ccc(F)cc2)ccc1OCCN1CCCC1 [Compound 254, N-(3-(4,6-dimethylpyrimidin-5-yl)-4-(2-(pyrrolidin-1-yl)ethoxy)phenyl)-2-(4-fluorophenyl)acetamide] | 1.3 | – |
| Cc1ncnc(C)c1-c1cc(NC(=O)CCc2ccccc2)ccc1OCCN1CCCC1 [Compound 255, N-(3-(4,6-dimethylpyrimidin-5-yl)-4-(2-(pyrrolidin-1-yl)ethoxy)phenyl)-3-phenylpropanamide] | 1.72 | – |
| Cc1ncnc(C)c1-c1cc(NC(=O)CCc2cocn2)ccc1OCCN1CCCC1 [Compound 258, N-[3-(4,6-dimethylpyrimidin-5-yl)-4-(2-pyrrolidin-1-ylethoxy)phenyl]-3-oxazol-4-yl-propanamide] | 10.8 | – |
| Cc1nc(CCC(=O)Nc2ccc(OCCN3CCCC3)c(-c3c(C)ncnc3C)c2)co1 [Compound 259, N-[3-(4,6-dimethylpyrimidin-5-yl)-4-(2-pyrrolidin-1-ylethoxy)phenyl]-3-(2-methyloxazol-4-yl)propanamide] | 19.6 | – |
| Cc1ncnc(C)c1-c1cc(NC(=O)Cc2cnco2)ccc1OCCN1CCCC1 [Compound 260, N-[3-(4,6-dimethylpyrimidin-5-yl)-4-(2-pyrrolidin-1-ylethoxy)phenyl]-2-oxazol-5-yl-acetamide] | 63.3 | – |
| Cc1nc(CC(=O)Nc2ccc(OCCN3CCCC3)c(-c3c(C)ncnc3C)c2)no1 [Compound 261, N-(3-(4,6-dimethylpyrimidin-5-yl)-4-(2-(pyrrolidin-1-yl)ethoxy)phenyl)-2-(5-methyl-1,2,4-oxadiazol-3-yl)acetamide] | 91.7 | – |
| Cc1ncnc(C)c1-c1cc(NC(=O)Cc2ccon2)ccc1OCCN1CCCC1 [Compound 262, N-(3-(4,6-dimethylpyrimidin-5-yl)-4-(2-(pyrrolidin-1-yl)ethoxy)phenyl)-2-(isoxazol-3-yl)acetamide] | 35.7 | – |
| Cc1cc(CC(=O)Nc2ccc(OCCN3CCCC3)c(-c3c(C)ncnc3C)c2)on1 [Compound 264, N-(3-(4,6-dimethylpyrimidin-5-yl)-4-(2-(pyrrolidin-1-yl)ethoxy)phenyl)-2-(3-methylisoxazol-5-yl)acetamide] | 9.18 | – |
| Cc1noc(CC(=O)Nc2ccc(OCCN3CCCC3)c(-c3c(C)ncnc3C)c2)n1 [Compound 265, N-(3-(4,6-dimethylpyrimidin-5-yl)-4-(2-(pyrrolidin-1-yl)ethoxy)phenyl)-2-(3-methyl-1,2,4-oxadiazol-5-yl)acetamide] | 18.2 | – |
| Cc1ncnc(C)c1-c1cc(NC(=O)Cc2cc(C)n(C)n2)ccc1OCCN1CCCC1 [Compound 267, 2-(1,5-dimethyl-1H-pyrazol-3-yl)-N-(3-(4,6-dimethylpyrimidin-5-yl)-4-(2-(pyrrolidin-1-yl)ethoxy)phenyl)acetamide] | 692 | – |
| Cc1ncnc(C)c1-c1cc(NC(=O)Cc2ccn(C)n2)ccc1OCCN1CCCC1 [Compound 269, N-[3-(4,6-dimethylpyrimidin-5-yl)-4-(2-pyrrolidin-1-ylethoxy)phenyl]-2-(1-methylpyrazol-3-yl)acetamide] | 559 | – |
| Cc1ncnc(C)c1-c1cc(NC(=O)CCc2ccn(C)n2)ccc1OCCN1CCCC1 [Compound 270, N-[3-(4,6-dimethylpyrimidin-5-yl)-4-(2-pyrrolidin-1-ylethoxy)phenyl]-3-(1-methylpyrazol-3-yl)propanamide] | 51.6 | – |
